# How the values were obtained:
# Daudi = assay: Daudi cell line Proliferation assay; assay type: functional, Homo sapiens; settings: time 3 day
# [1] = molecular target: Casein kinase II subunit alpha (Homo sapiens) (UniProt P68400); assay: CK2alpha1(h) Eurofins kinase panel; settings: Compound concentration 1.0 uM
# [2] = molecular target: T1, Serine/threonine-protein kinase ULK2 (Homo sapiens) (UniProt Q8IYT8); assay: ULK2(h) Eurofins kinase panel; settings: Compound concentration 1.0 uM
# T1 sequence (whole entry): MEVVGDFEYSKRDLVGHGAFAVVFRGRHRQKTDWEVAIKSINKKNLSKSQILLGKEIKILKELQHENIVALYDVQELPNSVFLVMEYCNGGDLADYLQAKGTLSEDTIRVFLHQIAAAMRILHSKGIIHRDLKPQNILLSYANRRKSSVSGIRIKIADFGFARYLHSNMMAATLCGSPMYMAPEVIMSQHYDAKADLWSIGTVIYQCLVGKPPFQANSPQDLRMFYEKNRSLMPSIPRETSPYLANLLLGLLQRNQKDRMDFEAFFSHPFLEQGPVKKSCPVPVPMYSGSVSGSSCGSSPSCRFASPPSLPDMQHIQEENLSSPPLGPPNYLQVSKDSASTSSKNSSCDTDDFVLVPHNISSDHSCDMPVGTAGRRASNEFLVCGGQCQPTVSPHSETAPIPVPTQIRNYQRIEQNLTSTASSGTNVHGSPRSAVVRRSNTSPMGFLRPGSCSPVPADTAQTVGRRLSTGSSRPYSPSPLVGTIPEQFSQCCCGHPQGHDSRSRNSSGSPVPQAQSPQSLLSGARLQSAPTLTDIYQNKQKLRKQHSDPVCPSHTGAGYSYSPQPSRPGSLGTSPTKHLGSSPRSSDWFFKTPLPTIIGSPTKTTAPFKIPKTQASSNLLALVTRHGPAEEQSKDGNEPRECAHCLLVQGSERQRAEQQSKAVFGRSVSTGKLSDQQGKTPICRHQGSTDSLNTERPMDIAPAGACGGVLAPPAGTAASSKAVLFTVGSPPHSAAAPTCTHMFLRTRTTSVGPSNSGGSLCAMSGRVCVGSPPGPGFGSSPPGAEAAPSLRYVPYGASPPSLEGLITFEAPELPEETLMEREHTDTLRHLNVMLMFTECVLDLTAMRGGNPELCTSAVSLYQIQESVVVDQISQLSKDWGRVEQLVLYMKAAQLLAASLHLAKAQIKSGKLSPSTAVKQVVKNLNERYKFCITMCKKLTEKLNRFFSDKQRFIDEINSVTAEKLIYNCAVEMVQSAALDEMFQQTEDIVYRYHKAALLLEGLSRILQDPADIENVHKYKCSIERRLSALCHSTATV
# [3] = molecular target: Vascular endothelial growth factor receptor 1 (Homo sapiens) (UniProt P17948); assay: Flt1(h) Eurofins kinase panel; settings: Compound concentration 1.0 uM
# [4] = molecular target: T2, Mitogen-activated protein kinase kinase kinase 5 (Homo sapiens) (UniProt Q99683); assay: ASK1(h) Eurofins kinase panel; settings: Compound concentration 1.0 uM
# T2 sequence (whole entry): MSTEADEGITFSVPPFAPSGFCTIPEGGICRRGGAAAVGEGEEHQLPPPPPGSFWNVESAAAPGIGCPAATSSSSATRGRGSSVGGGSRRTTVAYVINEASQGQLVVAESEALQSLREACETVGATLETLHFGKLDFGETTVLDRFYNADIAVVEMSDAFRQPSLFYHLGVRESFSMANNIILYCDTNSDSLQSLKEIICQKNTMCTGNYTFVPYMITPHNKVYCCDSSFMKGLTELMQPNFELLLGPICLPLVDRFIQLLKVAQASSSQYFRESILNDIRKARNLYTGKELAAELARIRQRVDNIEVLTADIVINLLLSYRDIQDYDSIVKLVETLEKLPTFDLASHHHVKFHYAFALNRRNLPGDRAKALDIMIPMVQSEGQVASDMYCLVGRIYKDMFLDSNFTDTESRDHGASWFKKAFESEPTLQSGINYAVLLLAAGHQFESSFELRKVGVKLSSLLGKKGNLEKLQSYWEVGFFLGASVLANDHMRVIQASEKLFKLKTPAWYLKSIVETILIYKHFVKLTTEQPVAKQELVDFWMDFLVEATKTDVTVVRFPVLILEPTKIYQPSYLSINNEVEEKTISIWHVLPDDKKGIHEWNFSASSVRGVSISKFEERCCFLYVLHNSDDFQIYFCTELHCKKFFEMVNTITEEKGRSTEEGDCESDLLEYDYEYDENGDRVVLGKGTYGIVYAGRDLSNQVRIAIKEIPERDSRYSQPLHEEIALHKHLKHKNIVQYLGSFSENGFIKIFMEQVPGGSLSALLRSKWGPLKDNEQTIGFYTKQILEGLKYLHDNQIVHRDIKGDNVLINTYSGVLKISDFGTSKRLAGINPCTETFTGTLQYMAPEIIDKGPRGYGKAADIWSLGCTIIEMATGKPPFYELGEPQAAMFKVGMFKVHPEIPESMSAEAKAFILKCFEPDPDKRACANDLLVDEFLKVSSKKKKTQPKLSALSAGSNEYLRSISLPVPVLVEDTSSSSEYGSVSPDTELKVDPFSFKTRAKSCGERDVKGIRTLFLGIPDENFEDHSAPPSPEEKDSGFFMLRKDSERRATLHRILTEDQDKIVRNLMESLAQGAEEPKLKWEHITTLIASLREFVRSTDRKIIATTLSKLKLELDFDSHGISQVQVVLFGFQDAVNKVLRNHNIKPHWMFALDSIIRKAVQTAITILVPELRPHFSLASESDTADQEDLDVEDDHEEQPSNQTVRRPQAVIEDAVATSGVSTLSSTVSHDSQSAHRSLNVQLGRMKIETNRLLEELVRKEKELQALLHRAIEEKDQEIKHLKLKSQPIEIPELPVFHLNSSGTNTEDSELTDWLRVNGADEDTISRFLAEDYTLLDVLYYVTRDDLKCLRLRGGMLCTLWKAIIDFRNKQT
# [5] = molecular target: DNA-dependent protein kinase catalytic subunit (Homo sapiens) (UniProt P78527); assay: DNA-PK(h) Eurofins kinase panel; settings: Compound concentration 1.0 uM
# [6] = molecular target: Serine/threonine-protein kinase PLK1 (Homo sapiens) (UniProt P53350); assay: Plk1(h) Eurofins kinase panel; settings: Compound concentration 1.0 uM
# Sequence of Serine/threonine-protein kinase PLK1 (Homo sapiens) (P53350 whole entry): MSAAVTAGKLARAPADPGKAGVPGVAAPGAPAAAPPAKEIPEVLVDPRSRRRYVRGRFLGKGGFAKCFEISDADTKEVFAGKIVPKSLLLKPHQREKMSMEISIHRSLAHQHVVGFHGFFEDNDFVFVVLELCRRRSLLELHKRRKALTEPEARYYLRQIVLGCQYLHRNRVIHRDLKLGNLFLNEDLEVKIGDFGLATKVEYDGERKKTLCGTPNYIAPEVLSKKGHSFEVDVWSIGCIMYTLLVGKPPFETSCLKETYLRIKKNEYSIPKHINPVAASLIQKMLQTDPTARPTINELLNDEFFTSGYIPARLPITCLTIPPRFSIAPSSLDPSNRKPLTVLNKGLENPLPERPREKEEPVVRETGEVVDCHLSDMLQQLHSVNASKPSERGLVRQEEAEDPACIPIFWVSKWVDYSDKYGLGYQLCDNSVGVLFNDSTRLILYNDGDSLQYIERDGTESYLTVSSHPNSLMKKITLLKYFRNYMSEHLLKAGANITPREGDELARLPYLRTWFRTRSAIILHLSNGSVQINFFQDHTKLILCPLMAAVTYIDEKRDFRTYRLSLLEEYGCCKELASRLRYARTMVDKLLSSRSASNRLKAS
# Sequence of Casein kinase II subunit alpha (Homo sapiens) (P68400 whole entry, looked up): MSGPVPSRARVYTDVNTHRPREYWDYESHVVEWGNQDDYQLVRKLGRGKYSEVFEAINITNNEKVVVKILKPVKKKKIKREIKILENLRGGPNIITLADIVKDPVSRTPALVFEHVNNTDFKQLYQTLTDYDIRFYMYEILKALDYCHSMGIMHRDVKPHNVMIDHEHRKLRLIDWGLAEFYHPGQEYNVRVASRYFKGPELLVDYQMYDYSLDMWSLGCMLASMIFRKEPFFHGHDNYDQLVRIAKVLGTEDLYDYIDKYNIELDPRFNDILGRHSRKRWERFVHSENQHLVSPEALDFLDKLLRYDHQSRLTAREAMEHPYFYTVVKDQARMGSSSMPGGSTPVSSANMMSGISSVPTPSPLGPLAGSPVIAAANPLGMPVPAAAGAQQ
# Sequence of DNA-dependent protein kinase catalytic subunit (Homo sapiens) (P78527 whole entry): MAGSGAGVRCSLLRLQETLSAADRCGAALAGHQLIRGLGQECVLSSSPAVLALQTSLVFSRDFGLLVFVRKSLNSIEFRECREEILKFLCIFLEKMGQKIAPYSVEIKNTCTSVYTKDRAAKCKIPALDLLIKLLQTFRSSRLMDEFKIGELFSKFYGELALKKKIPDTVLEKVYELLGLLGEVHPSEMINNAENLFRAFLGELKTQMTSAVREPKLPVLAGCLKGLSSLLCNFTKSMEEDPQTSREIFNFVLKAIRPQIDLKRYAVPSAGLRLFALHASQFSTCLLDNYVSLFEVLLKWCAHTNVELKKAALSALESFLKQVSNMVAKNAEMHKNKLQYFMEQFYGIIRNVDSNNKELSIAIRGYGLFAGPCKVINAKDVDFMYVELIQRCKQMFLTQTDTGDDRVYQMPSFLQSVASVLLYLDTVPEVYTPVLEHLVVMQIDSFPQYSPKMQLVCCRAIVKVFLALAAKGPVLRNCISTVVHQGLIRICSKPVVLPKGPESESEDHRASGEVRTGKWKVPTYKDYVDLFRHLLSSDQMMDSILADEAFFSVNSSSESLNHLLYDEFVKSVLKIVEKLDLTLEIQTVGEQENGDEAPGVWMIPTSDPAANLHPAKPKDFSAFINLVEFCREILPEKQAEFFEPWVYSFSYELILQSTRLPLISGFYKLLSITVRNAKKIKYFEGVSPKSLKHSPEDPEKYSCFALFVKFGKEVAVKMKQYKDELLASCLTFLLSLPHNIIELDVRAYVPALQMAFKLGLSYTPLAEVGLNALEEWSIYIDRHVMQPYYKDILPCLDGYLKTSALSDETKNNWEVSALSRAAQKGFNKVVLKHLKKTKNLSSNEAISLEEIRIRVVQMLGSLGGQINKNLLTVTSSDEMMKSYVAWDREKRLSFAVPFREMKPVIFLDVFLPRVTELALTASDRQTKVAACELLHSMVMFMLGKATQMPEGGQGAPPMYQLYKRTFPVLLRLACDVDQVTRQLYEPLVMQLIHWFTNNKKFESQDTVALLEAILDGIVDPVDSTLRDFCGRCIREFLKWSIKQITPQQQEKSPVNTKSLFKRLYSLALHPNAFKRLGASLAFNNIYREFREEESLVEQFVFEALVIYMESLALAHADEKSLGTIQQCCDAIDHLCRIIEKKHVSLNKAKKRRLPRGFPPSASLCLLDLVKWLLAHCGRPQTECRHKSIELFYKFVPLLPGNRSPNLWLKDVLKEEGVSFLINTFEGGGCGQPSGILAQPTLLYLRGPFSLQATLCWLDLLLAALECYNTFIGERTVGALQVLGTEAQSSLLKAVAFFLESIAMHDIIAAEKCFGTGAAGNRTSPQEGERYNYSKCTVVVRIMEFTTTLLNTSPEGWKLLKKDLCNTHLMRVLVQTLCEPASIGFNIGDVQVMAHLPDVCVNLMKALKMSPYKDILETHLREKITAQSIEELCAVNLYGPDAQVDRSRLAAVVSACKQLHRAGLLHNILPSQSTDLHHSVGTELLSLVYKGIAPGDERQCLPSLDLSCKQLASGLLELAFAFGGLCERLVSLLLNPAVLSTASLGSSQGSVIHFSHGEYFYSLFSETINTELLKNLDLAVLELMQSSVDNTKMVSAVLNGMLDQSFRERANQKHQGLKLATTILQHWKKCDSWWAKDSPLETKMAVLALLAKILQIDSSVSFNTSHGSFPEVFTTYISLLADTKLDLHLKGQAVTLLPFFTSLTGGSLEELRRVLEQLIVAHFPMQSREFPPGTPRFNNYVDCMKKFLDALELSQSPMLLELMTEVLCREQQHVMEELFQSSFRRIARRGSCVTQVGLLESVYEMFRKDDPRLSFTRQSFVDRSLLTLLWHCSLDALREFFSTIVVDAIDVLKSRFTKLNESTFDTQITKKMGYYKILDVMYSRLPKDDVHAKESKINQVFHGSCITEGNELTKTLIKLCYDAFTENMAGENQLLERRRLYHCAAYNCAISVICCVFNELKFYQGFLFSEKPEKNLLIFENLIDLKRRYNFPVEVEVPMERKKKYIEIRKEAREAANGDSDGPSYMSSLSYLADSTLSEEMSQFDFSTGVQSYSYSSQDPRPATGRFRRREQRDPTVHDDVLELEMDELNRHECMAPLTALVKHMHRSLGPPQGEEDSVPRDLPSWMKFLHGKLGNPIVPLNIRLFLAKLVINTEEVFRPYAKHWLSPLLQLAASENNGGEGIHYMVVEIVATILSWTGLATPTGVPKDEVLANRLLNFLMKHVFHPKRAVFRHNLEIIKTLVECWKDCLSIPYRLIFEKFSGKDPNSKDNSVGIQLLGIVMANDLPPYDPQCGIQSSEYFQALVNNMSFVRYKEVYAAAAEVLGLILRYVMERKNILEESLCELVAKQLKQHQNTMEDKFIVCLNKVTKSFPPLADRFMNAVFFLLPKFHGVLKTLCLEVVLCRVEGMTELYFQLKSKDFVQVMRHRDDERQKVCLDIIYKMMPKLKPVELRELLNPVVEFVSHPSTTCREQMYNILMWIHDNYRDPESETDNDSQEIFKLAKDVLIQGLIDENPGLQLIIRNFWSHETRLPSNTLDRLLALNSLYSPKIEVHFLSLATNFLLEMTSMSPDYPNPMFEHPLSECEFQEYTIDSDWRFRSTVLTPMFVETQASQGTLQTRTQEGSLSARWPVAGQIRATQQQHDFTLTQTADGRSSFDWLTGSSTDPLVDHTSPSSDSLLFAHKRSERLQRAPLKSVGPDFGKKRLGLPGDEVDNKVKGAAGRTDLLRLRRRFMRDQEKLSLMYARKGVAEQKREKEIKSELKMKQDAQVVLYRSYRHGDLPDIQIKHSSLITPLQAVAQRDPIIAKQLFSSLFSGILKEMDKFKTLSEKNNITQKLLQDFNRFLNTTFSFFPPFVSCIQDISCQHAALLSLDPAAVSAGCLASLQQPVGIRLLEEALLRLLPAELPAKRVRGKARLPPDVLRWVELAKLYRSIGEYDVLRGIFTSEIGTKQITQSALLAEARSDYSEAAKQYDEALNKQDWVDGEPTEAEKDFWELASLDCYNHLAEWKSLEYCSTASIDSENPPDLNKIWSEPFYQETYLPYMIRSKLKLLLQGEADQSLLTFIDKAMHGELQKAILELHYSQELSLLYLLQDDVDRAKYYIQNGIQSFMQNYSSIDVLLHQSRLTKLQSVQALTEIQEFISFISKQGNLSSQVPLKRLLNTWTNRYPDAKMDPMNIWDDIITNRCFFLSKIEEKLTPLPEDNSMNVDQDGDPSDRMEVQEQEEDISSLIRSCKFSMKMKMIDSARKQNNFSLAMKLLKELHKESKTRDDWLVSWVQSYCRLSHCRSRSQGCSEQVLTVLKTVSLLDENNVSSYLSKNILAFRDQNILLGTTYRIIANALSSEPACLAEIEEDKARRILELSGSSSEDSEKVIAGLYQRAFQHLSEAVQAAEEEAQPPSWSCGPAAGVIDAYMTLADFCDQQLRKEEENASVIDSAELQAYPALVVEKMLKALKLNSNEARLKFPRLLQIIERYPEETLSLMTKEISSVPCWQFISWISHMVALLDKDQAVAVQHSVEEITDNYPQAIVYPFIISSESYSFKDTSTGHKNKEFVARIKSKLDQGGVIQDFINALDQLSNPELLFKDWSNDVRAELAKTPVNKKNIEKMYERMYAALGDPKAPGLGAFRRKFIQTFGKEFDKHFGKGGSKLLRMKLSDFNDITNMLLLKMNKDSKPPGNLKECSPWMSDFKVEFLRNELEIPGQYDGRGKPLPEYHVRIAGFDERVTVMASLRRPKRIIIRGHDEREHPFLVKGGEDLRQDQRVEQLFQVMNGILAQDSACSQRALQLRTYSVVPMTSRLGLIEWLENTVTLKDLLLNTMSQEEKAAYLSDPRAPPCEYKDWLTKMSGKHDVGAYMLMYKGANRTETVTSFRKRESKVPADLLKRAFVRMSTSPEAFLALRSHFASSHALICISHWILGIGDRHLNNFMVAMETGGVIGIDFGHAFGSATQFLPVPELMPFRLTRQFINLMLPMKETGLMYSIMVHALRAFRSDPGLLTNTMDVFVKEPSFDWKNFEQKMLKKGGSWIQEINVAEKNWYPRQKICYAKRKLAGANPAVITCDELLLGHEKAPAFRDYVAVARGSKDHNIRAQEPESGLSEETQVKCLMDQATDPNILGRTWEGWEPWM
compound,measurement,setting,value
CCc1ccccc1C(=O)Nc1n[nH]c2c(C)c(F)c(C3C(C#N)=C(C)N(C)C(C)=C3C#N)cc12 [BAY-3827],Cell Proliferation IC50,Daudi,22.9 µM
same,% residual kinase activity,[1],93%
same,% residual kinase activity,[2],84%
same,% residual kinase activity,[3],96%
same,% residual kinase activity,[4],99%
same,% residual kinase activity,[5],94%
same,% residual kinase activity,[6],102%

# Reference: ChEMBL document CHEMBL4507319 (2021)
